Measured values from patent publication US9975854B2, “Benzomorphan analogs and use thereof” (Purdue Pharma L.P., priority 2014, dated 2018).

Biological target: μ-opioid receptor (Homo sapiens (Human), UniProt P35372)
Experiment: μ-opioid receptor [35S]GTPγS functional assay, HEK-293 or CHO cells
Assay type: biochemical
Details: HEK-293 or CHO cells; for EC50: read-out: GTPγS μ EC50; for Emax: relative to DAMGO
Protocol: [^35S]GTPγS functional assays were conducted using freshly thawed μ-receptor membranes prepared in-house from a cell line expressing recombinant opioid receptor in a HEK-293, CHO or U-2 OS cell background, or purchased from a commercial source (Perkin Elmer, Shelton, Conn.; or DiscovRx, Fremont, Calif.). Assay reactions were prepared by sequentially adding the following reagents to binding buffer (100 mM NaCl, 10 mM MgCl2, 20 mM HEPES, pH 7.4) on ice (final concentrations indicated): membrane protein (0.026 mg/mL), saponin ([…]), GDP ([…]) and [^35S]GTPγS (0.20 nM; Perkin Elmer, Shelton, Conn.). The prepared membrane solution (190 μl/well) was transferred to 96-shallow well polypropylene plates containing 10 μl of 20× concentrated stock solutions of the agonist [D-Ala^2, N-methyl-Phe^4 Gly-ol^5]-enkephalin (DAMGO) prepared in dimethyl sulfoxide (DMSO). Plates were incubated for 30 min at about 25° C. with shaking. Reactions were terminated by rapid filtration onto 96-well Unifilter GF/B filter plates (Perkin Elmer, Shelton, Conn.) using a 96-well tissue harvester (Perkin Elmer, Shelton, Conn.) followed by three filtration washes with 200 μl of ice-cold wash buffer (10 mM NaH2PO4, 10 mM Na2HPO4, pH 7.4). Filter plates were subsequently dried at 50° C. for 2-3 hr. BetaScint scintillation cocktail (Perkin Elmer, Shelton, Conn.) was added (50 μl/well) and plates were counted using a Packard Top-Count for 1 min/well. Data were analyzed using the sigmoidal dose-response curve fitting functions in GraphPad PRISM v. 3.0, or an in-house function for non-linear, sigmoidal dose-response curve-fitting.
μ GTP EC50 is the concentration of a compound providing 50% of the maximal response for the compound at a μ-opioid receptor.
μ GTP Emax (%) is the maximal effect elicited by a compound relative to the effect elicited by DAMGO, a standard p agonist. Generally, the μ GTP Emax (%) value measures the efficacy of a compound to treat or prevent pain or other Conditions.
In TABLE 4, activity response of certain Compounds of the Invention to the μ- and κ-opioid receptors was determined as described above for functional assays using HEK-293 or CHO cells.

For `CCCN(C(=O)Nc1ccc(C#N)cc1)[C@H]1[C@H]2Cc3ccc(O)cc3[C@]1(C)CCN2C` [Compound 92, 3-(4-cyanophenyl)-1-((2R,6S,11R)-8-hydroxy-3,6-dimethyl-1,2,3,4,5,6-hexahydro-2,6-methanobenzo[d]azocin-11-yl)-1-propylurea], which EC50 is on record?
The EC50 was 96.4 ± 3.52 nM.

What about the Emax of the same compound?
The Emax was 43.8 ± 1.03%.

Which EC50 does the source give for `CCN(C(=O)Nc1ccc(C#N)cc1)[C@@H]1[C@H]2Cc3ccc(O)cc3[C@]1(C)CCN2C` [Compound 93, 3-(4-cyanophenyl)-1-ethyl-1-((2R,6S,11 S)-8-hydroxy-3,6-dimethyl-1,2,3,4,5,6-hexahydro-2,6-methanobenzo[d]azocin-11-yl)urea] here?
The EC50 was 2290 ± 404 nM.

What about the Emax of the same compound?
The Emax was 32 ± 2.48%.

`CN1CC[C@@]2(C)c3cc(O)ccc3C[C@@H]1[C@@H]2N(C)CC1CCN(C(=O)NC(C)(C)C)CC1` [Compound 95, N-(tert-butyl)-4-((((2R,6S,11R)-8-hydroxy-3,6-dimethyl-1,2,3,4,5,6-hexahydro-2,6-methanobenzo[d]azocin-11-yl)(methyl)amino)methyl)piperidine-1-carboxamide] was tested. Which EC50 did it give?
Its EC50 is 8 ± 1.64 nM.

What about the Emax of the same compound?
Its Emax is 17.7 ± 2.6%.

For `CCN(CCc1ccc(S(C)(=O)=O)cc1)[C@H]1[C@H]2Cc3ccc(O)cc3[C@]1(C)CCN2C` [Compound 98, (2R,6S,11R)-11-(ethyl(4-(methylsulfonyl)phenethyl)amino)-3,6-dimethyl-1,2,3,4,5,6-hexahydro-2,6-methanobenzo[d]azocin-8-ol], which EC50 is on record?
The EC50 was 0.64 ± 0.082 nM.

What about the Emax of the same compound?
Its Emax is 44.6 ± 0.6%.

Which results are given for `CN1CC[C@@]2(C)c3cc(O)ccc3C[C@@H]1[C@@H]2N(C)S(=O)(=O)Cc1ccccc1` [Compound 100, N-((2R,6S,11R)-8-hydroxy-3,6-dimethyl-1,2,3,4,5,6-hexahydro-2,6-methanobenzo[d]azocin-11-yl)-N-methyl-1-phenylmethane-sulfonamide]?
EC50: 8950 ± 2040 nM; Emax: 25 ± 1.53%

Which EC50 does the source give for `CN1CC[C@]2(C)c3cc(O)ccc3CC1[C@@H]2C(=O)N1CCCCC1` [Compound 106, ((6S,11R)-8-hydroxy-3,6-dimethyl-1,2,3,4,5,6-hexahydro-2,6-methanobenzo[d]azocin-11-yl)(piperidin-1-yl)methanone] here?
The EC50 was 4090 ± 334 nM.

What about the Emax of the same compound?
The Emax was 49 ± 1.73%.

Which results are given for `CN1CC[C@@]2(C)c3cc(O)ccc3C[C@@H]1[C@@H]2N(C)C(=O)Nc1nc2ccccc2[nH]1` [Compound 107, 3-(1H-benzo[d]imidazol-2-yl)-1-((2R,6S,11R)-8-hydroxy-3,6-dimethyl-1,2,3,4,5,6-hexahydro-2,6-methanobenzo[d]azocin-11-yl)-1-methylurea]?
EC50: 6.81 ± 2.86 nM; Emax: 30.6 ± 1.51%

`CN1CC[C@@]2(C)c3cc(O)ccc3C[C@@H]1[C@@H]2NCc1ccccc1` [Compound 108, (2R,6S,11R)-11-(benzylamino)-3,6-dimethyl-1,2,3,4,5,6-hexahydro-2,6-methanobenzo[d]azocin-8-ol] was tested. Which EC50 did it give?
The EC50 was 11700 ± 3290 nM.

What about the Emax of the same compound?
The Emax was 17.1 ± 0.67%.

How did the EC50 turn out when `CN1CC[C@@]2(C)c3cc(O)ccc3C[C@@H]1[C@H]2NCCCc1ccccc1` [Compound 109, (2R,6S,11S)-3,6-dimethyl-11-((3-phenylpropyl)amino)-1,2,3,4,5,6-hexahydro-2,6-methanobenzo-[d]azocin-8-ol] was run?
The EC50 was 649 ± 114 nM.

What about the Emax of the same compound?
Its Emax is 59.6 ± 2.5%.

For `CCn1c(NC(=O)N(C)[C@H]2[C@H]3Cc4ccc(OC)cc4[C@]2(C)CCN3C)nc2ccccc21` [Compound 110, 3-(1-Ethyl-1H-benzo[d]imidazol-2-yl)-1-((2R,6S,11R)-8-methoxy-3,6-dimethyl-1,2,3,4,5,6-hexahydro-2,6-methanobenzo[d]azocin-11-yl)-1-methylurea], which EC50 is on record?
Its EC50 is 851 ± 161 nM.

What about the Emax of the same compound?
The Emax was 89.2 ± 6.05%.

For `COc1ccc2c(c1)[C@]1(C)CCN(C)[C@H](C2)[C@@H]1N(C)C(=O)Nc1nc2ccccc2[nH]1` [Compound 111, 3-(1H-benzo[d]imidazol-2-yl)-1-((2R,6S,11R)-8-methoxy-3,6-dimethyl-1,2,3,4,5,6-hexahydro-2,6-methanobenzo[d]azocin-11-yl)-1-methylurea], which EC50 is on record?
The EC50 was 790 ± 98.5 nM.

What about the Emax of the same compound?
Its Emax is 67.4 ± 3.48%.
